Test results from US5164376A, “Method for treating retroviral infections with aryl-(2-pyrryl) keytone compound” (Hoffmann-LaRoche Inc., priority 1990, dated 1992).
“Also recorded” adds a separate entry of the source.

Legend:
TAT = test: anti-TAT assay: SeAP reporter gene expression under control of HIV-LTR in COS cells co-transfected with TAT; format: cell-based; conditions: 1, 10 and 100 μM added 24 h post transfection, assayed 48 h later, three independent assays, values only in FIG. I
Description: FIG. I: Illustrates anti-TAT activity of Compound II. COS cells are co-transfected with TAT and Secreted Alkaline Phosphatase (SeAP) genes. The SeAP gene, under the control of the HIV-LTR (responsive to TAT activation) or the RSV-LTR (unresponsive to TAT action) serves as a monitor or reporter gene. SeAP activity in the HIV-LTR combination but not the RSV-LTR combination serves as a measure of TAT activity. Cells containing the RSV-LTR co-transfected gene combination serve as an indicator of the non-specific toxicity of added test compounds. The black bars represent the percent inhibition of SeAP activity by Compound II when the SeAP gene is under the control of HIV-LTR. The hatched bars represent the effect of […] on SeAP activity when the SeAP gene is regulated by RSV-LTR. […] The figure includes results from three separate assays.
Compound II was tested for anti-TAT activity in an anti-TAT assay described in copending patent application Case Docket No. 8320 filed on the same day as the instant application and hereby incorporated by reference. […] The anti-TAT activity is measured by the percent inhibition of SeAP gene expression under the control of HIV-LTR.

COS cells = test: parallel cytotoxicity assay: SeAP gene expression under control of RSV-LTR (unresponsive to TAT) in COS cells; format: cell-based; conditions: values only in FIG. I
Procedure: At 24 hours post transfection 1, 10, and 100 μM of test compound was added to the culture media of COS cells transfected with two plasmids, one containing the reporter gene which codes for Secreted Alkaline Phosphatase (SeAP) under control of HIV-LTR, and other containing the TAT gene also under control of HIV-LTR. The alkaline phosphatase activity of the media was assayed 48 hours after addition of test compound. […] The anti-TAT activity is measured by the percent inhibition of SeAP gene expression under the control of HIV-LTR.

HIV-1 NIT strain [1] = test: inhibition of HIV-cytopathic effect in infected CD4+ CEM cells (live-cell count by trypan blue exclusion); format: cell-based; conditions: MOI=1, 4 days, values only in FIG. II
Procedure: (§1) FIGS. II Illustrates the anti-HIV activity of Compound II when tested according to the protocol set forth in Example 2. The open bars and the hatch bars are live-cell counts of infected and uninfected cells respectively. The filled circles are percentage of cell which were stained with antibody from AIDS patients. The duration of treatment for compound II was 4 days.
(§2) High titer virus stocks (HIV-1 NIT strain) were grown in CD4^+ CR1O cells in RMPI-1640 media (Gibco Laboratories) supplemented with 10% fetal calf serum and 0.1 mg/ml Gentamicin. The collected media were filtered through a 0.8 Micron filter and virus isolates were concentrated 100 fold and stored at -80° C.
(§3) CD4^+ CEM cells, propagated in the same medium, were incubated for 60 minutes at 37° C. with diluted stock virus at MOI=1. Cells were washed three times with phosphate buffered saline and resuspended in the medium at 2 x 10^5 cells/ml. Various quantities of Compound II were added. Four days after infection, numbers of live cells were counted by trypan blue exclusion [Mitsuya, et al. Proc. Natl. Acad. Sci. 83:1911 (1986)]. At the same time, aliquots of cells were fixed with acetone and stained with antibodies from AIDS patients, followed by a second staining with fluorescein-conjugated goat anti-human IgG (Cappel). […]

HIV-1 NIT strain [2] = test: inhibition of viral antigen production (percentage of cells stained with antibodies from AIDS patients); format: cell-based; conditions: CEM cells, MOI=1, 4 days; values only in FIG. II
Procedure: as §1, §2, §3

HIV = conditions: most patients; cited from earlier work

Compound	anti-TAT activity (inhibition of SeAP gene expression under HIV-LTR) (TAT)	nonspecific toxicity (effect on SeAP activity under RSV-LTR) (COS cells)	inhibition of HIV-cytopathic effect (HIV-1 NIT strain [1])	inhibition of viral antigen production (HIV-1 NIT strain [2])	virustatic range (dose) (HIV)
NCC(=O)Nc1ccc(Cl)cc1C(=O)c1ccc[nH]1 [Compound II, 2-glycinamido-5-chlorophenyl (2-pyrryl) ketone]	exhibits anti-TAT activity; also recorded: specific inhibitor of TAT	does not exhibit nonspecific autotoxicity	inhibition of HIV-cytopathic effect	inhibition of HIV-cytopathic effect and viral antigen production	–
Nc1ccn([C@H]2CC[C@@H](CO)O2)c(=O)n1 [ddC]	–	–	–	–	0.005-0.25 mg/kg body weight
